From patent US9169252B2 (BRISTOL-MYERS SQUIBB COMPANY, priority 2014, dated 2015)
pEC50, pIC50: −log10 of the molar value. Where two headings read alike, the source gives them in different places.

What was measured:
IRAK4 = IRAK4 (Homo sapiens (Human), UniProt Q9NWZ3); experiment: IRAK4 Inhibition Assay; format: biochemical; details: ATP 500 μM, read-out: IRAK4 IC50
Description: The assays were performed in U-bottom 384-well plates. […] The reaction was initiated by the combination of IRAK4 with substrates and test compounds. The reaction mixture was incubated at room temperature for 60 min. and terminated by adding 45 μL of 35 mM EDTA to each sample. The reaction mixture was analyzed on the Caliper LABCHIP® 3000 (Caliper, Hopkinton, Mass.) by electrophoretic separation of the fluorescent substrate and phosphorylated product.

[1] = test system: TLR2 induced IL-6 in peripheral blood mononuclear cells (PBMCs); experiment: PBMC TLR2 Induced IL-6 Assay; format: cell-based, human; details: IL-6 by ELISA; for pEC50: read-out: Cell EC50; for pIC50: read-out: Cell IC50
Description: PBMC TLR2 Induced IL-6 Assay
Peripheral blood mononuclear cells (PBMCs) were isolated from human blood containing the anti-coagulant EDTA (2.5 mM) by centrifugation over a FICOLL® gradient. PBMCs (250000 cells/well) were cultured in assay media (RPMI with 10% heat inactivated FCS) with compounds for 30 minutes at 37° C. in a 5% CO2 incubator. Following pretreatment with compounds, cells were stimulated for 5 hours with 10 µg/ml lipoteichoic acid (Invivogen, San Diego, Calif.), a TLR2 agonist. At the end of the culture, plates were centrifuged at 1800 rpm for 10 minutes to pellet the cells.

[2] = Homo sapiens, PBMC, human PBMCs, lipoteichoic acid stimulated
[3] = Homo sapiens, PBMC, PBMC TLR2 Induced IL-6 Assay, lipoteichoic acid stimulation
[4] = human PBMCs, lipoteichoic acid stimulated
[5] = PBMC TLR2 Induced IL-6 Assay, lipoteichoic acid stimulation

IRAK4, sequence (Q9NWZ3 whole entry, species assumed): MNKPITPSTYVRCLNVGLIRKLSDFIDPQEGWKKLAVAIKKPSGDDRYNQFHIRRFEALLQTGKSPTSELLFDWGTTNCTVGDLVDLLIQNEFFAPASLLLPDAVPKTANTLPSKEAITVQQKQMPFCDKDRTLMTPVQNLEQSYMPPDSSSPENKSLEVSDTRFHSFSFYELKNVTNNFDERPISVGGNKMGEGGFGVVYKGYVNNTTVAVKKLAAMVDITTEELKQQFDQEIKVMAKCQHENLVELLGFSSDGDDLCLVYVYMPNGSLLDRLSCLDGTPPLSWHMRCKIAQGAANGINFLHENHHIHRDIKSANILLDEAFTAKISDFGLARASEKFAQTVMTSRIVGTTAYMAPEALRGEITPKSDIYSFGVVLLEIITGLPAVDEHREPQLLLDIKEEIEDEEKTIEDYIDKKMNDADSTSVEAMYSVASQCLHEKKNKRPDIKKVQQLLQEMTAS

With `CC(C)(O)[C@H](F)CNC(=O)c1cnc(-n2ncc3cc(C#N)cnc32)cc1Nc1cccc(C#N)c1F` [Example 528] the pIC50 (IRAK4; IRAK4 0.6 nM) was 8.48, the pEC50 [1, 2] was 7.04 and the pIC50 [1, 2] was 6.49.

`CCS(=O)(=O)N1CCC(NC(=O)c2cnc(-n3ncc4cc(C#N)cnc43)cc2NC(C)C)CC1` [Example 290] was tested, and the pIC50 (IRAK4; IRAK4 Inhibition Assay) was 8.23 and the pIC50 [1, 3] was 6.44.

`CC(C)Nc1cc(-n2ncc3cc(C#N)cnc32)ncc1C(=O)NCCC1(O)CCN(C)CC1` [Example 250] gave a pIC50 (IRAK4; IRAK4 Inhibition Assay) of 8.08 and a pEC50 [1, 3] of 6.30.

`Cn1nnnc1-c1ccc(Nc2cc(-n3ccc4cc(C#N)cnc43)ncc2C(=O)NC[C@@H](F)C(C)(C)O)cc1` [Example 69, (R)-6-(5-cyano-1H-pyrrolo[2,3-b]pyridin-1-yl)-N-(2-fluoro-3-hydroxy-3-methylbutyl)-4-((4-(1-methyl-1H-tetrazol-5-yl)phenyl)amino)nicotinamide] was tested, and the pIC50 (IRAK4; IRAK4 Inhibition Assay) was 8.89 and the pEC50 [1, 3] was 7.30.

`Cn1nccc1Nc1cc(-n2ccc3cc(C#N)cnc32)ncc1C(=O)NC[C@@H](F)C(C)(C)O` [Example 424] showed a pIC50 (IRAK4; IRAK4 0.6 nM) of 8.22 and a pEC50 [1, 4] of 6.47.

`CC(C)(O)[C@H](F)CNC(=O)c1cnc(-n2ccc3cc(C#N)cnc32)cc1Nc1ccc2nn[nH]c2c1` [Example 436] gave a pIC50 (IRAK4; IRAK4 0.6 nM) of 8.74 and a pEC50 [1, 2] of 6.78.

`CC(C)(O)[C@H](F)CNC(=O)c1cnc(-n2ccc3cc(C#N)cnc32)cc1N[C@@H]1CCN(C(=O)CC(F)(F)F)C1` [Example 473] was tested, and the pIC50 (IRAK4; IRAK4 0.6 nM) was 8.39, the pEC50 [1, 2] was 6.62 and the pIC50 [1, 2] was 6.32.

`CC(C)Nc1cc(-n2ncc3cc(C#N)cnc32)ncc1C(=O)Nc1ccc(OCCN(C)C)cn1` [Example 225] gave a pIC50 (IRAK4; IRAK4 Inhibition Assay) of 8.04 and a pEC50 [1, 3] of 7.01.

`CC(=O)N[C@H]1CC[C@H](NC(=O)c2cnc(-n3ncc4cc(C#N)cnc43)cc2NC(C)C)CC1` [Example 164, N-((trans)-4-acetamidocyclohexyl)-6-(5-cyano-1H-pyrazolo[3,4-b]pyridin-1-yl)-4-(isopropylamino) nicotinamide] was tested, and the pIC50 (IRAK4; IRAK4 Inhibition Assay) was 8.46 and the pEC50 [1, 3] was 6.52.

`CC(C)Nc1cc(-n2ccc3cc(CNC(=O)C4CC4)cnc32)ncc1C(=O)NC[C@@H](F)C(C)(C)O` [Example 505] was tested, and the pIC50 (IRAK4; IRAK4 0.6 nM) was 7.87 and the pIC50 [1, 2] was 6.25.

`CC(C)Nc1cc(-n2ncc3cc(C#N)cnc32)ncc1C(=O)NC[C@@H](F)C(O)C(C)C` (single isomer, unassigned) [Example 233] gave a pIC50 (IRAK4; IRAK4 Inhibition Assay) of 8.44, a pEC50 [1, 5] of 7.42 and a pIC50 [1, 5] of 6.75.

For `CC(C)(O)[C@H](F)CNC(=O)c1cnc(-n2ccc3cc(C#N)cnc32)cc1Nc1cccc(C#N)c1F` [Example 430], the pIC50 (IRAK4; IRAK4 0.6 nM) was 8.68 and the pEC50 [1, 2] was 6.68.

`CC(C)(O)[C@H](F)CNC(=O)c1cnc(-n2ccc3cc(C#N)cnc32)cc1NC1CCC(F)C1` (single isomer, unassigned) [Example 110] was tested, and the pIC50 (IRAK4; IRAK4 Inhibition Assay) was 8.89 and the pEC50 [1, 5] was 7.33.

`CC(C)CNC(=O)c1cnc(-n2ncc3cc(C#N)cnc32)cc1Nc1cnn(CC(F)F)c1` [Example 391] gave a pIC50 (IRAK4; IRAK4 Inhibition Assay) of 8.21 and a pIC50 [1, 3] of 6.62.

`CC(C)Nc1cc(-n2ncc3cc(C#N)cnc32)ncc1C(=O)Nc1cc2cc[nH]c2cn1` [Example 223] was tested, and the pIC50 (IRAK4; IRAK4 Inhibition Assay) was 8.40 and the pIC50 [1, 3] was 6.75.

For `CC(C)(O)C(F)(F)CNC(=O)c1cnc(-n2ncc3cc(C#N)cnc32)cc1Nc1cnn(CC(F)F)c1` [Example 397], the pIC50 (IRAK4; IRAK4 0.6 nM) was 8.18 and the pIC50 [1, 2] was 6.68.

`CC(C)(O)[C@H](F)CNC(=O)c1cnc(-n2ncc3cc(C#N)c(N)nc32)cc1NC12CC3CC(CC(O)(C3)C1)C2` [Example 632] showed a pIC50 (IRAK4; IRAK4 0.6 nM) of 8.59 and a pIC50 [1, 2] of 6.83.

Compound `CC(C)Nc1cc(-n2ccc3cc(C#N)cnc32)ncc1C(=O)NCCNS(C)(=O)=O` [Example 63, 6-(5-cyano-1H-pyrrolo[2,3-b]pyridin-1-yl)-4-(isopropylamino)-N-(2-(methylsulfonamido)ethyl)nicotinamide] has a pIC50 (IRAK4; IRAK4 Inhibition Assay) of 8.39 and a pEC50 [1, 3] of 7.92.

`CC(C)(O)[C@H]1CC[C@H](Nc2cc(-n3ncc4cc(C#N)cnc43)ncc2C(=O)NC[C@@H](F)C(C)(C)O)C1` [Example 617] showed a pIC50 (IRAK4; IRAK4 0.6 nM) of 8.55 and a pIC50 [1, 2] of 6.31.

Compound `CC(C)Nc1cc(-n2ncc3cc(C#N)cnc32)ncc1C(=O)NCCC(C)(C)O` [Example 146, 6-(5-cyano-1H-pyrazolo[3,4-b]pyridin-1-yl)-N-(3-hydroxy-3-methylbutyl)-4-(isopropylamino)nicotinamide] has a pIC50 (IRAK4; IRAK4 Inhibition Assay) of 8.19 and a pEC50 [1, 3] of 6.57.

`CC(C)Nc1cc(-n2ncc3cc(C#N)cnc32)ncc1C(=O)Nc1cnc(N2CCOCC2)nc1` [Example 224] showed a pIC50 (IRAK4; IRAK4 Inhibition Assay) of 8.17, a pEC50 [1, 3] of 6.52 and a pIC50 [1, 3] of 6.80.

With `CC(C)Nc1cc(-n2ncc3cc(C#N)cnc32)ncc1C(=O)NC[C@@H](F)C(C)(C)OC(F)F` [Example 314] the pIC50 (IRAK4; IRAK4 Inhibition Assay) was 7.86 and the pIC50 [1, 3] was 6.38.

Compound `CCOC(=O)NCc1cnc2c(ccn2-c2cc(NC(C)C)c(C(=O)NC[C@@H](F)C(C)(C)O)cn2)c1` [Example 501] has a pIC50 (IRAK4; IRAK4 0.6 nM) of 8.27 and a pIC50 [1, 2] of 6.48.

For `C[C@H](CF)Nc1cc(-n2ncc3cc(C#N)cnc32)ncc1C(=O)NC[C@@H](F)C(C)(C)O` [Example 114, 6-(5-Cyano-1H-pyrazolo[3,4-b]pyridin-1-yl)-N—((R)-2-fluoro-3-hydroxy-3-methylbutyl)-4-(((R)-1-fluoropropan-2-yl)amino)nicotinamide], the pIC50 (IRAK4; IRAK4 Inhibition Assay) was 8.34.

Compound `CC(C)(O)[C@H](F)CNC(=O)c1cnc(-n2ncc3cc(F)cnc32)cc1NC1CCC(O)C1` (mixture of isomers) [Example 611] has a pEC50 [1, 4] of 6.27 and a pIC50 [1, 4] of 5.73.

`COC(C)(C)[C@H](F)CNC(=O)c1cnc(-n2ccc3cc(C#N)cnc32)cc1NC(C)C` [Example 434] gave a pEC50 [1, 2] of 7.24.

Compound `CC(C)(O)[C@H](F)CNC(=O)c1cnc(-n2ncc3cc(C#N)cnc32)cc1N[C@@H]1CCOC1` [Example 548] has a pIC50 [1, 2] of 6.12 and a pEC50 [1, 4] of 6.15.

With `[2H]C([2H])([2H])OC(C)(C)[C@H](F)CNC(=O)c1cnc(-n2ccc3cc(C#N)cnc32)cc1NC(C)C` [Example 442] the pEC50 [1, 2] was 7.38.

In the case of `CC(C)(O)[C@H](F)CNC(=O)c1cnc(-n2ncc3cc(C#N)cnc32)cc1NC1CCC(F)C1` (stereo partly shown) [Example 627], the pIC50 [1, 4] was 8.15.

In the case of `CC(C)(O)[C@H](F)CNC(=O)c1cnc(-n2ncc3cc(C#N)cnc32)cc1NC1CCC(F)C1` (stereo partly shown) [Example 626], the pIC50 [1, 4] was 7.12.

`CC(C)(O)[C@H](F)CNC(=O)c1cnc(-n2ncc3cc(C#N)cnc32)cc1NC1CCC(F)C1` (stereo partly shown) [Example 625] was tested, and the pIC50 [1, 4] was 6.68.

Work on `CC(C)Nc1cc(-n2cnc3cncnc32)ncc1C(=O)NC[C@@H](F)C(C)(C)O` [Example 170, (R)—N-(2-Fluoro-3-hydroxy-3-methylbutyl)-4-(isopropylamino)-6-(9H-purin-9-yl) nicotinamide] yielded a pEC50 [1, 3] of 6.37.

With `CC(C)Nc1cc(-n2ccc3cc(Cl)cnc32)ncc1C(=O)NC[C@@H](F)C(C)(C)O` [Example 76, (R)-6-(5-chloro-1H-pyrrolo[2,3-b]pyridin-1-yl)-N-(2-fluoro-3-hydroxy-3-methylbutyl)-4-(isopropylamino) nicotinamide] the pIC50 [1, 3] was 6.40.

`CC(C)(O)[C@H](F)CNC(=O)c1cnc(-n2ncc3cc(Cl)cnc32)cc1N[C@@H]1C[C@H]1CO` (single isomer, unassigned) [Example 646] showed a pIC50 [1, 4] of 6.41.

`CC(C)(O)[C@H](F)CNC(=O)c1cnc(-n2ncc3cc(F)cnc32)cc1NC1CCC(O)C1` (single isomer, unassigned) [Example 610] gave a pEC50 [1, 4] of 6.78 and a pIC50 [1, 4] of 6.66.

`CC(C)(O)[C@H](F)CNC(=O)c1cnc(-n2ccc3cc(C#N)cnc32)cc1N[C@@H]1COC[C@H]1F` (single isomer, unassigned) [Example 458] was tested, and the pIC50 [1, 2] was 6.59 and the pEC50 [1, 4] was 6.58.
